Legend:
[1] = system: MDS BM cells; experiment: Patient derived xenograft in NSG mice treated with ADP-heptose; type: in vivo, human; conditions: immunocompromised mice, after 28 days
Procedure: NOD.Cg-Prkdc^scidIl2rg^tm1Wj1/SzJ (NSG)^75 were bred and maintained by the CCHMC Comprehensive Mouse Core. For patient derived xenografts, NSG mice (sub-lethally conditioned with 2 Gy of whole-body irradiation) were injected tail vein with healthy CD34+ cells (1×10^6 cells per mouse) and MDS patient cells (5×10^6 cells per mouse) in 200 μl of sterile PBS. Mice were then given sterile water or ADP-heptose (0.5 mg/kg) dissolved in sterile water at the indicated times. Mice were monitored for human engraftment in BM aspirates Briefly, 1×10^6 BM cells from each sample were incubated with huCD45 (Cat no. 555485, BDPharmingen) and huCD33 (Cat no. 555450, BDPharmingen) antibodies diluted 1:100 in a solution of PBS, 0.2% FBS for 30 minutes on ice. Cells were washed once with PBS, resuspended in PBS with 0.2% FBS, and immediately analyzed by flow cytometry.

[2] = system: TIFA-TdT THP1 cells; experiment: TIFAsome formation assay; type: cell-based, human
Procedure: THP1-TIFA-tdTomato cells (1*10^6) were stimulated with various human plasma samples (100 μl) for 30 mins in a 37° C. water bath in final volume of 200 μl. Cells were harvested, washed with PBS+2% FBS+2 mM EDTA (MACS buffer) and fixed with 4% Paraformaldehyde (PFA, Cat no. 15710, Electron Microscopy Sciences). After fixation, cells were washed again and then resuspended in 50 μl MACS buffer. Cells were then analyzed for TIFAsome formation on an Amnis Imagestream Mk II Imaging Flow Cytometer ISX-100 (Luminex) according to the manufacturer's instructions. Downstream analysis was performed in IDEAS analysis software (Amnis). TIFAsome positive cells were identified by gating on Mean Pixel Intensity and Max Pixel Intensity for bright puncta analysis using the IDEAS Image Data Exploration and Analysis Software. A standard curve was prepared by calculating % TIFAsome positive cells using samples which were stimulated with serial increasing doses of ADP-heptose covering the concentration range of 10 to 100,000 ng/ml. […]
THP1-TIFA-tdTomato-GFP cells were suspended at 1×10^6 cells/mL and treated with either human plasma samples (50 μl) in final volume of 200 μl for 30 minutes, or the inhibitor for 1 hour to allow for entry into the cell and then stimulated with ADP-heptose for 30 minutes. […] Images were acquired using a Nikon Ni-E Upright widefield fluorescent scope and analyzed using Nikon Elements.

[3] = system: NF-κB in THP1 cells; experiment: NF-κB signaling (immunoblot) and THP1-Blue NF-kB SEAP reporter; type: cell-based, human
Procedure: Protein concentration was evaluated by bicinchoninic acid (BCA) assay (Pierce, Cat #23225). SDS sample buffer was added to the lysates and the proteins were separated by SDS-polyacrylamide gel electrophoresis, transferred to PVDF or nitrocellulose membranes (BIO-RAD, Cat #1620112), and analyzed by immunoblotting. […] Membranes were visualized using ECL Western Blotting Substrate (Pierce, #32106) or SuperSignal West Femto Substrate (Thermo Scientific, #34096), imaged on a BIO-RAD ChemiDoc Touch Imaging system and analyzed with Image lab software 6.0.1 (Biorad) or Image J (22930834).
THP1-Blue NF-kB SEAP reporter cells (Cat no. thp-nkfb, Invivogen) were grown at 20,000 cells per well (200 μl) in a 96-well plate with the indicated agonists and inhibitors for 24 hours. […] The absorbance was read at 630 nm for a final readout. For analysis, media absorbance was subtracted, experimental values were normalized to vehicle control, and triplicates were averaged.

Compound: Nc1ncnc2c1ncn2[C@@H]1O[C@H](COP(=O)(O)OP(=O)(O)O[C@@H]2O[C@H]([C@H](O)CO)[C@@H](O)[C@H](O)[C@@H]2O)[C@@H](O)[C@H]1O [ADP-heptose, ADP-D-glycero-β-D-manno-heptose]
- expansion of xenografted MDS BM cells [1]: expanded
- TIFAsome formation (discrete puncta in the cytoplasm) [2]: rapidly induce TIFAsome formation
- NF-kB activation ([3]; TIFA-deficient THP1 cells): unable to activate NF-kB
- canonical NF-κB signaling and transcriptional activation ([3]; human leukemic cells (THP1)): induce canonical NF-κB signaling and transcriptional activation

From patent publication US20250314644A1, “METHODS COMPRISING DETECTION OF ADP-HEPTOSE” (CHILDREN'S HOSPITAL MEDICAL CENTER, priority 2023, published 2025)
